Results as given in ChEMBL document CHEMBL1201862, “PubChem BioAssay data set” (2004).
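In this assay, cells in 96-well plates receive the compound at five concentrations for 48 hours. Endpoints are linearly interpolated between the surrounding concentrations. Abbreviation: GI50, concentration required for 50% inhibition of growth.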 Activity calls are given as the source filed them. Cut-off read from the data, not from the text of the source: active = GI50 up to about 1.1 µM and inactive = higher.

Key:
Assay in all cases: DTP human tumour cell line panel, 48 h
MDA-N = system: MDA-N
A549 = system: A549
MDA-MB-231 = system: MDA-MB-231
T47D = system: T47D
786-0 = system: 786-0
HCC 2998 = system: HCC 2998
SK-MEL-5 = system: SK-MEL-5
HCT-15 = system: HCT-15
SNB-75 = system: SNB-75
COLO 205 = system: COLO 205
MOLT-4 = system: MOLT-4
KM12 = system: KM12
RXF 393 = system: RXF 393
IGROV-1 = system: IGROV-1
SR = system: SR
HL-60 = system: HL-60
HOP-62 = system: HOP-62
TK-10 = system: TK-10
M14 = system: M14
CCRF-CEM = system: CCRF-CEM
EKVX = system: EKVX
CAKI-1 = system: CAKI-1
RPMI-8226 = system: RPMI-8226
K562 = system: K562
PC-3 = system: PC-3
DU-145 = system: DU-145
MCF7 = system: MCF7
HT-29 = system: HT-29
NCI-H23 = system: NCI-H23
SF-268 = system: SF-268
UACC-62 = system: UACC-62
SK-OV-3 = system: SK-OV-3
SK-MEL-28 = system: SK-MEL-28
SW-620 = system: SW-620
OVCAR-8 = system: OVCAR-8
Malme-3M = system: Malme-3M
MDA-MB-435 = system: MDA-MB-435
Hs-578T = system: Hs-578T
SF-539 = system: SF-539
SN12C = system: SN12C
NCI-H460 = system: NCI-H460
NCI-H226 = system: NCI-H226
NCI/ADR-RES = system: NCI/ADR-RES
UO-31 = system: UO-31
SNB-19 = system: SNB-19
UACC-257 = system: UACC-257
U-251 = system: U-251
SF-295 = system: SF-295
ACHN = system: ACHN
HCT-116 = system: HCT-116
A498 = system: A498
HOP-92 = system: HOP-92
OVCAR-5 = system: OVCAR-5
LOX IMVI = system: LOX IMVI
OVCAR-3 = system: OVCAR-3
OVCAR-4 = system: OVCAR-4
NCI-H522 = system: NCI-H522
SK-MEL-2 = system: SK-MEL-2

In the case of `CC(=O)OC[C@]12CCC3[C@@]4(C)CCCC(C)(C)C4CC[C@@]3(C)C1CC(C1=CC(=O)OC1O)O2` (stereo partly specified), the GI50 (MDA-N) is reported as 1.16 µM (inactive), the GI50 (A549) is reported as 1.85 µM (inactive) and the GI50 (MDA-MB-231) is reported as 1.26 µM (inactive). The GI50 (T47D) was 1.32 µM (inactive), the GI50 (786-0) was 0.219 µM (active) and the GI50 (HCC 2998) was 1.47 µM (inactive). For the same compound, the GI50 (SK-MEL-5) was 1.44 µM (inactive), the GI50 (HCT-15) was 0.516 µM and the GI50 (SNB-75) was 1.8 µM (inactive). For the same compound, the GI50 (COLO 205) was 2.25 µM (inactive), the GI50 (MOLT-4) was 0.252 µM (active) and the GI50 (KM12) was 1.68 µM (inactive). The GI50 (RXF 393) was 0.382 µM (active), the GI50 (IGROV-1) was 1.19 µM (inactive) and the GI50 (SR) was 0.259 µM (active). The GI50 (HL-60) was 0.428 µM (active), the GI50 (HOP-62) was 1.9 µM (inactive) and the GI50 (TK-10) was 1.75 µM (inactive). The GI50 (M14) was 1.5 µM (inactive), the GI50 (CCRF-CEM) was 0.271 µM (active) and the GI50 (EKVX) was 2.44 µM (inactive). For the same compound, the GI50 (CAKI-1) was 1.72 µM (inactive), the GI50 (RPMI-8226) was 0.275 µM (active) and the GI50 (K562) was 0.425 µM (active). For the same compound, the GI50 (PC-3) was 1.32 µM (inactive), the GI50 (DU-145) was 4.07 µM (inactive) and the GI50 (MCF7) was 0.726 µM (active). For the same compound, the GI50 (HT-29) was 0.692 µM (active), the GI50 (NCI-H23) was 1.39 µM (inactive) and the GI50 (SF-268) was 1.44 µM (inactive). For the same compound, the GI50 (UACC-62) was 1.53 µM (inactive), the GI50 (SK-OV-3) was 1.87 µM (inactive) and the GI50 (SK-MEL-28) was 0.512 µM (active). For the same compound, the GI50 (SW-620) was 0.375 µM (active) and the GI50 (OVCAR-8) was 0.962 µM (active).

`CC(=O)O/N=C/c1c2ccccc2cc2ccccc12` was tested, and the GI50 (Malme-3M) was 47 µM (inactive), the GI50 (A549) was 47.9 µM (inactive) and the GI50 (MDA-MB-435) was 38 µM (inactive). For the same compound, the GI50 (MDA-MB-231) was 20.9 µM (inactive), the GI50 (Hs-578T) was 67.1 µM (inactive) and the GI50 (SF-539) was 51.1 µM (inactive). For the same compound, the GI50 (T47D) was 81.7 µM (inactive), the GI50 (SN12C) was 65.3 µM (inactive) and the GI50 (NCI-H460) was 51.8 µM (inactive). For the same compound, the GI50 (SK-MEL-5) was 58.9 µM (inactive), the GI50 (HCT-15) was 56.1 µM and the GI50 (SNB-75) was 22.1 µM (inactive). For the same compound, the GI50 (NCI-H226) was 46.9 µM (inactive), the GI50 (COLO 205) was > 100 µM (inactive) and the GI50 (MOLT-4) was > 100 µM (inactive). The GI50 (KM12) was 61.8 µM (inactive), the GI50 (RXF 393) was 21.7 µM (inactive) and the GI50 (SR) was 28 µM (inactive). For the same compound, the GI50 (HL-60) was > 100 µM (inactive), the GI50 (HOP-62) was 30 µM (inactive) and the GI50 (TK-10) was 83 µM (inactive). For the same compound, the GI50 (M14) was > 100 µM (inactive), the GI50 (CCRF-CEM) was > 100 µM (inactive) and the GI50 (EKVX) was 27.5 µM (inactive). For the same compound, the GI50 (NCI/ADR-RES) was 56.8 µM (inactive), the GI50 (UO-31) was 36.2 µM (inactive) and the GI50 (CAKI-1) was 82.4 µM (inactive). For the same compound, the GI50 (RPMI-8226) was 51.6 µM (inactive), the GI50 (SNB-19) was 50.5 µM (inactive) and the GI50 (UACC-257) was > 100 µM (inactive). The GI50 (U-251) was 45.6 µM (inactive), the GI50 (SF-295) was 47.4 µM (inactive) and the GI50 (K562) was 85.7 µM (inactive). The GI50 (PC-3) was > 100 µM (inactive), the GI50 (DU-145) was > 100 µM (inactive) and the GI50 (MCF7) was 78.2 µM (inactive). For the same compound, the GI50 (ACHN) was 23.8 µM (inactive), the GI50 (HT-29) was 57.7 µM (inactive) and the GI50 (NCI-H23) was 76.6 µM (inactive). The GI50 (SF-268) was 61.1 µM (inactive), the GI50 (HCT-116) was 41.6 µM (inactive) and the GI50 (A498) was 24.9 µM (inactive). The GI50 (HOP-92) was > 100 µM (inactive), the GI50 (OVCAR-5) was > 100 µM (inactive) and the GI50 (LOX IMVI) was > 100 µM (inactive). The GI50 (UACC-62) was 40.9 µM (inactive), the GI50 (SK-OV-3) was 22.2 µM (inactive) and the GI50 (OVCAR-3) was > 100 µM (inactive). The GI50 (SK-MEL-28) was 89.3 µM (inactive), the GI50 (SW-620) was 50.8 µM (inactive) and the GI50 (OVCAR-8) was 19.1 µM (inactive).

`CN(NC(=O)/C(=C/c1ccc(Cl)cc1)NC(=O)c1ccccc1)c1cn[nH]c(=O)c1Cl` was tested, and the GI50 (Malme-3M) was 54.5 µM (inactive), the GI50 (MDA-N) was > 100 µM (inactive) and the GI50 (A549) was > 100 µM (inactive). The GI50 (MDA-MB-435) was > 100 µM (inactive), the GI50 (MDA-MB-231) was > 100 µM (inactive) and the GI50 (Hs-578T) was > 100 µM (inactive). For the same compound, the GI50 (SF-539) was > 100 µM (inactive), the GI50 (SN12C) was > 100 µM (inactive) and the GI50 (NCI-H460) was > 100 µM (inactive). For the same compound, the GI50 (786-0) was > 100 µM (inactive), the GI50 (SK-MEL-5) was 73.5 µM (inactive) and the GI50 (HCT-15) was greater than 100 µM. The GI50 (SNB-75) was 59 µM (inactive), the GI50 (NCI-H226) was 31.1 µM (inactive) and the GI50 (COLO 205) was > 100 µM (inactive). For the same compound, the GI50 (MOLT-4) was 19.9 µM (inactive), the GI50 (KM12) was 55.1 µM (inactive) and the GI50 (RXF 393) was > 100 µM (inactive). For the same compound, the GI50 (IGROV-1) was 41.4 µM (inactive), the GI50 (SR) was > 100 µM (inactive) and the GI50 (OVCAR-4) was > 100 µM (inactive). For the same compound, the GI50 (HL-60) was 12.7 µM (inactive), the GI50 (HOP-62) was 47 µM (inactive) and the GI50 (TK-10) was > 100 µM (inactive). For the same compound, the GI50 (M14) was > 100 µM (inactive), the GI50 (CCRF-CEM) was 30 µM (inactive) and the GI50 (EKVX) was 68.5 µM (inactive). For the same compound, the GI50 (NCI/ADR-RES) was 34 µM (inactive), the GI50 (UO-31) was > 100 µM (inactive) and the GI50 (CAKI-1) was > 100 µM (inactive). For the same compound, the GI50 (RPMI-8226) was 17.4 µM (inactive), the GI50 (SNB-19) was > 100 µM (inactive) and the GI50 (UACC-257) was > 100 µM (inactive). The GI50 (U-251) was 40.9 µM (inactive), the GI50 (SF-295) was 46.6 µM (inactive) and the GI50 (K562) was > 100 µM (inactive). The GI50 (PC-3) was > 100 µM (inactive), the GI50 (DU-145) was > 100 µM (inactive) and the GI50 (NCI-H522) was 17.5 µM (inactive). For the same compound, the GI50 (MCF7) was > 100 µM (inactive), the GI50 (ACHN) was > 100 µM (inactive) and the GI50 (HT-29) was > 100 µM (inactive). The GI50 (NCI-H23) was > 100 µM (inactive), the GI50 (SF-268) was > 100 µM (inactive) and the GI50 (HCT-116) was > 100 µM (inactive). The GI50 (HOP-92) was > 100 µM (inactive), the GI50 (OVCAR-5) was > 100 µM (inactive) and the GI50 (LOX IMVI) was 62.7 µM (inactive). For the same compound, the GI50 (UACC-62) was 97.1 µM (inactive), the GI50 (SK-OV-3) was > 100 µM (inactive) and the GI50 (OVCAR-3) was 87.1 µM (inactive). The GI50 (SK-MEL-2) was > 100 µM (inactive), the GI50 (SK-MEL-28) was > 100 µM (inactive) and the GI50 (SW-620) was > 100 µM (inactive). For the same compound, the GI50 (OVCAR-8) was 46.9 µM (inactive).
